Experimental data from publication PMC3404088, “Development of a Small D-Enantiomeric Alzheimer’s Amyloid-β Binding Peptide Ligand for Future In Vivo Imaging Applications” (PLoS ONE, 2012).
“Also recorded” adds a separate entry of the source. Square brackets hold non-standard residues; d marks the D form. Peptide text beside a SMILES is read from it. * marks the point of attachment. 5FAM = O=C1OC2(c3ccc(O)cc3Oc3cc(O)ccc32)c2ccc(C(=O)*)cc21

Tests used:
[1] = target: T1, Aβ1–42 fibrils (Homo sapiens, UniProt P05067); assay: ELISA, compound binding to Aβ1–42 fibrils; settings: 10 µg/ml compound; optical density after pNPP incubation; value of one single experiment only
T1 construct: Aβ1–42 was dissolved in hexafluoroisopropanol (HFIP)
Method: Aβ1–42 peptide film was prepared from lyophilized powder (Bachem). The powder was reconstituted in HFIP to a final concentration of 1 mM, sonicated for 15 min at room temperature (RT), agitated overnight (ON), and aliquoted into non-siliconized microcentrifuge tubes (12 µl corresponding to 55 µg). The HFIP was evaporated under a stream of argon. The resulting peptide film was vacuum dried for 10 min and stored at -80°C. For direct use as peptide film, an aliquot of Aβ1–42 peptide film was reconstituted with 0.54% dimethylsulphoxide (DMSO) in phosphate buffered saline (PBS) to obtain a final concentration of 10 µg/ml and then used for the ELISA as described below. To prepare fibrils, 55 µg aliquot of peptide film was dissolved in 55 µl of 50 mM Tris-HCl, pH 7.4 and incubated at 37°C for five days. Next, the sample was centrifuged (10’000 rpm for 5 min) and the pellet was diluted in 50 mM Tris-HCl, pH 7.4.
Aβ1–42 peptide preparations were diluted in 0.05 M bicarbonate-carbonate buffer pH 9.6, to the final concentration of 10 µg/ml and coated onto ELISA plates (MaxiSorp, Nunc). After blocking (PBS; 0.05% Tween; 1% BSA), plates were incubated with 2- or 3-fold dilutions of D-compounds (starting concentration: 10 µg/ml) and incubated for 2 h at 37°C. Plates were then washed and incubated for 2 h at 37°C with the detection antibody Rabbit-a-fluorescein isothiocyanate-AP (Sigma; 1∶10’000 dilution) followed by the incubation for 2.5 h at room temperature (RT) with 1 mg/ml of phosphatase substrate (pNPP, Sigma). The absorbance signal was read at 405 nm wavelength using a Tecan plate reader (Tecan Group Lt, Männedorf, Switzerland).
ELISA plates (MaxiSorp, Nunc) were coated with anti-Aβ antibody 6E10 (Covance) at a concentration of 5 µg/ml. Either monomeric Aβ1–42 peptide film (mainly monomeric) or Aβ1–42 fibrils, which were prepared as described above, were diluted in PBS to the final concentration 10 µg/ml and mixed with 10-fold dilutions of D-peptide compounds in Eppendorf tubes (starting concentration of D-peptide compounds: 10 µg/ml). The tubes were incubated for 2 h at 37°C. Next, samples were distributed onto the ELISA plate and kept for 2 h at 37°C. Plates were washed and incubated for 2 h at 37°C with the detection antibody Rabbit-a-fluorescein isothiocyanate-AP (Sigma; 1∶10′000 dilution) following the incubation overnight (ON) at RT with 1 mg/ml of phosphatase substrate (pNPP, Sigma). The absorbance signal was read at 405 nm wavelength using the Tecan plate reader (Tecan Group Ltd, Männedorf, Switzerland).
To verify the SPR results, ELISA was employed to assay the interaction of the ACI-80 derivatives ACI-80-Kϕ, ACI-81-Kϕ, ACI-82-Kϕ, ACI-83-Kϕ, ACI-84-Kϕ, ACI-85-Kϕ, ACI-86-Kϕ, ACI-87-Kϕ, [^19F]-ACI-87-Kϕ, ACI-88-Kϕ, [^19F]-ACI-88-Kϕ, ACI-89-Kϕ, [^19F]-ACI-89-Kϕ) with Aβ1–42 fibrils and Aβ peptide film in solution containing mostly monomers and smaller oligomers (Table 4). To avoid any bias by possible conformational influences the ELISA has been carried out in two versions, once with immobilized antibody and once with immobilized Aβ1–42 as described in the methods section. Both assays yielded similar results and confirmed each other. […] Panels A and B in Figure 2 show the results for binding to Aβ1–42 fibrils and panels C and D in Figure 2 show the results for binding to freshly prepared Aβ1–42 peptide film, which contains mostly monomeric Aβ. In Table 4, the performance of the peptides is expressed relative to that of ACI-80-Kϕ.

[2] = target: T2, Aβ plaques in brain sections of transgenic APP (V717I) x PS1 (A246E) mice (Homo sapiens, UniProt P05067); assay: Ex vivo staining of mouse brain slices by FITC labeled compounds; settings: for staining / recognition of Aβ plaques: 0.01 mg/ml ϕ-labeled compound, 2 h, 10 µm cryostat sections; for staining / recognition of Aβ plaques / staining pattern / background signal: fluorescence microscopy; for overlay with 6E10 anti-Aβ staining: co-staining with 6E10 (2 µg/ml) and DAPI, triple overlay; for background signal: 0.01 mg/ml
T2 construct: triple image overlay of respective stains reveal that the ϕ-compounds identify plaques; from tissue; host or cells: brain cryosections of APP (V717I) x PS1 (A246E) transgenic mice
Method: In vitro tissue section staining was performed according to previously described protocols with slight modifications. Mouse brains were obtained from male transgenic (tg) APP (London mutation V717l) x PS1 (A246E) mice aged 13–21 months and from female wild type (wt) mice aged 9–10 months. The mice were anesthetized and transcardially perfused with saline. The brains were removed and snap frozen. 10 µm thick sagittal cryostat sections through the whole mouse brain were produced and mounted onto glass slides. ϕ-labeled compounds were applied to investigate binding. Thus, the slides were thawed, washed in PBS and fixed in 4% paraformaldehyde (20 min at RT) just before incubation with ϕ-labeled compounds. One series of sections was treated only with fluorescent compounds (0.01 mg/ml, incubation time 2 h) while another series of sections were incubated with anti-Aβ antibody 6E10 at 1∶500 dilution (SIG-39320, Covance; final antibody concentration was 2 µg/ml) in addition to ϕ-labeled compounds (0.01 mg/ml). The slices were washed in PBS. The sections incubated with ϕ-labeled compound and 6E10 antibody were further incubated for 2 h at RT with Goat-anti-Mouse IgG1– AlexaFluor 555 (A21127, Invitrogen, 1∶1000 dilution) and washed with PBS. Finally, all sections were counterstained with 4’–6-Diamidino-2-phenylindole (DAPI, 32670, Sigma, incubation 5 min at RT) for the visualization of cell nuclei. The slides were mounted using Prolong Gold Antifade mounting medium (P36930, Invitrogen) and coverslipped.
The tissues were analyzed using a fluorescent Zeiss Axioscope 2 Plus microscope using the AxioVision 4 image analysis software.
A further series of slices was stained using a primary anti-fluorescein isothiocyanate antibody combined with alkaline phosphatase reaction for visualization of ϕ-labeled peptides. Briefly, the sections were treated with blocking solution (10% normal goat serum (NGS), 0.25% Triton X-100 in PBS for 1 h at RT) and incubated with primary antibody (rabbit-anti-FITC; Invitrogen) at a dilution of 1∶500. The sections were then washed and incubated for 2 h at RT with the secondary antibody goat-anti-rabbit-alkaline phosphatase (Sigma) at a dilution of 1∶100. After washing, the slides were incubated with BCIP/NBT substrate (Sigma) for 3 min, washed, dehydrated and mounted using Eukitt mounting medium.

binding value, binding Aβ1–42 fibrils [1] | plaque detection via anti-fluorescein isothiocyanate antibody and alkaline phosphatase ([2]; tg mouse brain slices immersed in ϕ-peptide, BCIP/NBT chromogenic detection, light microscope) | background signal [2] | Structure (SMILES) | staining / recognition of Aβ plaques [2] | overlay with 6E10 anti-Aβ staining [2] | staining pattern [2]
*1.49 | abundant chromogenic deposits |  | CC[C@@H](C)[C@@H](NC(=O)[C@@H](Cc1c[nH]cn1)NC(=O)[C@@H](CCCNC(=N)N)NC(=O)[C@@H](Cc1ccc(O)cc1)NC(=O)[C@@H](Cc1c[nH]cn1)NC(=O)[C@@H](CO)NC(=O)[C@H]1CCCN1)C(=O)N[C@H](CO)C(=O)N1CCC[C@@H]1C(=O)N[C@H](C)C(=O)N[C@H](CCC(N)=O)C(=O)N[C@H](CCCCN)C(=O)N[C@H](CCCCNC(=O)c1ccc2c(c1)C(=O)OC21c2ccc(O)cc2Oc2cc(O)ccc21)C(=O)O [ACI-89-Kϕ] (H-[dP][dS][dH][dY][dR][dH][dI][dS][dP][dA][dQ][dK][dK](5FAM)-OH; N-terminus and C-terminus assumed) | stained plaques most intensively; also recorded: readily recognized amyloid plaques | match 6E10 anti-Aβ staining quite well | more similar to the one of 6E10 which also stains diffuse Aβ plaques
*1.78 |  | lowest background signal of all peptides | CC[C@@H](C)[C@@H](NC(=O)[C@@H](Cc1c[nH]cn1)NC(=O)[C@@H](CCCNC(=N)N)NC(=O)[C@@H](Cc1ccc(O)cc1)NC(=O)[C@@H](Cc1c[nH]cn1)NC(=O)[C@H](N)CO)C(=O)N[C@H](CO)C(=O)N1CCC[C@@H]1C(=O)N[C@H](C)C(=O)N[C@H](CCC(N)=O)C(=O)N[C@H](CCCCN)C(=O)N[C@H](CCCCNC(=O)c1ccc2c(c1)C(=O)OC21c2ccc(O)cc2Oc2cc(O)ccc21)C(=O)O [ACI-88-Kϕ] (H-[dS][dH][dY][dR][dH][dI][dS][dP][dA][dQ][dK][dK](5FAM)-OH; N-terminus and C-terminus assumed) | stained plaques most intensively; also recorded: readily recognized amyloid plaques | match 6E10 anti-Aβ staining quite well; also recorded: good overlap with 6E10 Aβ staining | stained the core of plaques
*0.93 |  | high background fluorescence | CC[C@@H](C)[C@@H](NC(=O)[C@@H](Cc1c[nH]cn1)NC(=O)[C@@H](CCCNC(=N)N)NC(=O)[C@@H](Cc1ccc(O)cc1)NC(=O)[C@@H](Cc1c[nH]cn1)NC(=O)[C@@H](CO)NC(=O)[C@H](N)CCC(N)=O)C(=O)N[C@H](CO)C(=O)N1CCC[C@@H]1C(=O)N[C@H](C)C(=O)N[C@H](CCC(N)=O)C(=O)N[C@H](CCCCN)C(=O)N[C@H](CCCCNC(=O)c1ccc2c(c1)C(=O)OC21c2ccc(O)cc2Oc2cc(O)ccc21)C(=O)O [ACI-87-Kϕ] (H-[dQ][dS][dH][dY][dR][dH][dI][dS][dP][dA][dQ][dK][dK](5FAM)-OH; N-terminus and C-terminus assumed) | readily recognized amyloid plaques | nearly no overlay with 6E10 anti-Aβ was detected | 
